{"source": "patent US20220054494A1", "about": "“METHODS FOR TREATING BLADDER AND URETHRA DYSFUNCTION AND DISEASE” (University of Pittsburgh - Of the Commonwealth System of …, priority 2019, published 2022)", "tested_on": "p16", "assay": "Western immunoblotting, senescence marker p16", "format": "in vivo, rat", "description": "Western immunoblotting and transmission electron microscopy: Following these testing paradigms, rats were deeply anesthetized, bladders were removed, and one half of each bladder (using the smooth muscle layer) was homogenized using Lysing Matrix D in a FASTPREP-24™ instrument (MP BIOMEDICALS™, Solon, Ohio) in HBSS (5 mM KCl, 0.3 mM KH2PO4, 138 mM NaCl, 4 mM NaHO3, 0.3 mM Na2HCO3, 0.3 mM Na2HPO4, 5.6 mM glucose and 10 mM Hepes, pH 7.4) containing complete protease inhibitor cocktail (1 tablet/10 ml, ROCHE™, Indianapolis, Ind.) and phosphatase inhibitor cocktail (SIGMA®, 1:100). Whole rat kidney was also homogenized using the same procedure. After centrifugation (13000 rpm; 15 min at 4° C.), the membrane protein fraction was prepared by suspending the membrane pellets in lysis buffer containing 0.3 M NaCl, 50 mM Tris-HCl (pH 7.6), 0.5% Triton X-100, and the same concentration of protease inhibitors as above. […] The protein concentrations of the combined supernatants were determined using the PIERCE™ BCA protein assay (THERMO SCIENTIFIC™, Rockford, Ill.). […] As a loading control, total protein per sample was determined using BIO-RAD™ Stain Free SDS-PAGE gel technology. UV-activated protein fluorescence was imaged on a CHEMIDOC™ MP (BIO-RAD™). […] The volume (intensity) of each protein species was determined and normalized to total protein using Image Lab software (BIO-RAD™). […]", "note": "“Also recorded” adds a separate entry of the source."}
{"smiles": "Nc1nc2[nH]c(N)nc2c(=O)[nH]1", "note": "[8-AG, 8-Aminoguanine]", "values": [{"measurement": "senescence marker p16 in bladder smooth muscle", "setting": "aged Fisher 344 rats, 8-AG 5 mg kg/day via drinking water, 1 month", "result": "restored to a younger state; also recorded: restored to levels similar to the younger state"}, {"measurement": "senescence marker p16 in detrusor smooth muscle", "setting": "aged rats, oral 8-AG 5 mg/kg/day, 6 weeks", "result": "levels similar to the younger state; also recorded: restored these biomarkers to that of a younger state"}]}
